For data set [1], the target named is T1, ADP-glucose pyrophosphorylase enzyme from rice endosperm (Oryza sativa subsp. japonica, UniProt P15280+Q7G065).
T1 construct: host or cells: rice endosperm
T1 sequence (P15280 1-479 isoform P15280-2): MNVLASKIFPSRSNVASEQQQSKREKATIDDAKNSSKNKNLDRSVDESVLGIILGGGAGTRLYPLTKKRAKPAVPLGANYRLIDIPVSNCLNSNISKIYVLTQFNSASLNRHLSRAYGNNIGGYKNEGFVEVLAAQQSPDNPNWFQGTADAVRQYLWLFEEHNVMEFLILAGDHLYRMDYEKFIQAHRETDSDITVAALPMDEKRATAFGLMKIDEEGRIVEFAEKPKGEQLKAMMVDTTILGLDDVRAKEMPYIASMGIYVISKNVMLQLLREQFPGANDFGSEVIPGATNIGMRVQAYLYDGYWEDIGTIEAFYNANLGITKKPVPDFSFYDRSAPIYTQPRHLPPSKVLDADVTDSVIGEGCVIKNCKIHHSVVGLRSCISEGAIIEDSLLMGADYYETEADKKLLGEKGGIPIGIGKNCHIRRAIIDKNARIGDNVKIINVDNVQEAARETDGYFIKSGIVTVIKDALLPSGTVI
T1 sequence (Q7G065 1-518): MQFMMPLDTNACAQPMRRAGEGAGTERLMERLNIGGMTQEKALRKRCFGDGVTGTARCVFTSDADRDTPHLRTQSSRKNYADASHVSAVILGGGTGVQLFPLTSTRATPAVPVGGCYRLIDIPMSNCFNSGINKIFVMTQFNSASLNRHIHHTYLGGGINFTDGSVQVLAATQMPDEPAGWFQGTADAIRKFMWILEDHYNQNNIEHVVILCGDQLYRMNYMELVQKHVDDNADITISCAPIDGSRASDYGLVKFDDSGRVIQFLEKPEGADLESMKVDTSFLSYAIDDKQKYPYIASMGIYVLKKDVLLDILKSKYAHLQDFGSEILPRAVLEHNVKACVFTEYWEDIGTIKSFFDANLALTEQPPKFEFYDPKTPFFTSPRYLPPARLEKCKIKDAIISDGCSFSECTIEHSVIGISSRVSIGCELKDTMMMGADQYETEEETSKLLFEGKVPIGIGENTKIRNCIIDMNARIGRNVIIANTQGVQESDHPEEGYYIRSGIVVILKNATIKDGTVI
The following applies: 5 mM 3-phosphoglycerate; cited from earlier work.

Data set [2] has as its target T2, wheat leaf ADP-glucose pyrophosphorylase (Triticum aestivum, UniProt P12298).
T2 sequence (P12298 1-301): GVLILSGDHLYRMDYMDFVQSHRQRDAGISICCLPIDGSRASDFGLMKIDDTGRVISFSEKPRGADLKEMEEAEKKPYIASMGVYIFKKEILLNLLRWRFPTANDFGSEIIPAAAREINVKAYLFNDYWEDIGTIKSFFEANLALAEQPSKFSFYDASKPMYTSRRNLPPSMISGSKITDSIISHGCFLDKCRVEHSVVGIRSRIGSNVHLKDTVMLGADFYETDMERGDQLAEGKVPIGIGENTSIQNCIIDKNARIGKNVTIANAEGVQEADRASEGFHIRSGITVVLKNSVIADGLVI
T2 sequence (P30523 2-473 partner): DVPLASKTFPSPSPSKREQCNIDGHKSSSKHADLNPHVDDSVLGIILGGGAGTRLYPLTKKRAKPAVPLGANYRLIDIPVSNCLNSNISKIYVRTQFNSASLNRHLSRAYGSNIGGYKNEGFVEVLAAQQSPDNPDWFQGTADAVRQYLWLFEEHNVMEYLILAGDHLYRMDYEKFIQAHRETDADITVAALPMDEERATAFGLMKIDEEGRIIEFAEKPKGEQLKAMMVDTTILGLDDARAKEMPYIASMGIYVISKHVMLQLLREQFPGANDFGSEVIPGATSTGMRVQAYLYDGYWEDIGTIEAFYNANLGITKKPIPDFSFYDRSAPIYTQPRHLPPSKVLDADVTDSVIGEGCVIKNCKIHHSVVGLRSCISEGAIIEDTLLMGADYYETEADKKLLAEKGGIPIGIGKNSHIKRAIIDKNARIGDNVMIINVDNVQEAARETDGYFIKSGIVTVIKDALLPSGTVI
Description: biochemical. The following applies: read-out: fold activation of enzyme.

Data set [3] concerns plant leaf ADP-glucose pyrophosphorylase. The following applies: cited from earlier work; for activation in vitro: all plant leaf enzymes studied.
Data set [4] has as its target T3, wheat endosperm ADP-glucose pyrophosphorylase (Triticum aestivum, UniProt P12299+P30523).
T3 sequence (P12299 63-522): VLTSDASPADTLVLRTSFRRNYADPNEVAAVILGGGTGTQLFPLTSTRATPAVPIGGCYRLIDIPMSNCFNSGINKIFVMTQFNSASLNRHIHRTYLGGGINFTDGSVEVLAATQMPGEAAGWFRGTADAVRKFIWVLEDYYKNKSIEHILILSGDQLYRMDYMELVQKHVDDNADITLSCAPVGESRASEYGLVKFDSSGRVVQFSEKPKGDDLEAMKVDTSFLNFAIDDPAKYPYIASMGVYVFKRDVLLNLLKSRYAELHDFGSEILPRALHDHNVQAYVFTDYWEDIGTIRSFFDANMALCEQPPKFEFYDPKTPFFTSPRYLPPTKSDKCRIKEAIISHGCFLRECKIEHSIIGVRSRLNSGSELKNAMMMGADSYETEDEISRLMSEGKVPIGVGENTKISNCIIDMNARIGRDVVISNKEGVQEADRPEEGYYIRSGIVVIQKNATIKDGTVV
T3 sequence (P30523 1-473): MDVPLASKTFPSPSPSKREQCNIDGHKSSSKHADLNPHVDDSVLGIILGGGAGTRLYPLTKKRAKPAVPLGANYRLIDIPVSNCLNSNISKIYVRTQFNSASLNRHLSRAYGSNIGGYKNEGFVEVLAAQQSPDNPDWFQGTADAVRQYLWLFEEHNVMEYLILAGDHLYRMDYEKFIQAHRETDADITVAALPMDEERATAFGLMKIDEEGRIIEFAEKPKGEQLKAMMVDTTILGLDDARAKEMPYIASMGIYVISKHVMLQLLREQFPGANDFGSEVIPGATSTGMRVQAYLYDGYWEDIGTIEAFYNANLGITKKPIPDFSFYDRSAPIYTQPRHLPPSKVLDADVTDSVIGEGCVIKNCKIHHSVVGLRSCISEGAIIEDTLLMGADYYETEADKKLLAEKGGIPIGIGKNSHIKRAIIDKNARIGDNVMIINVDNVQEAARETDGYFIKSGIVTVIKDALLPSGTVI

The target of data set [5] is T3, wheat endosperm ADP-glucose pyrophosphorylase. Put plainly: Screen of 3-phosphoglycerate analogues for antagonism of phosphate inhibition. To be noted: compound 3 mM, 1 mM phosphate. Details: Partially-purified wheat endosperm ADP-glucose pyrophosphorylase; from tissue; host or cells: wheat endosperm. In kind it is biochemical. Here is the method:
There is clear evidence that the wheat endosperm enzyme has allosteric properties by virtue of being inhibited by phosphate and the inhibition being partially relieved by 3-phosphoglycerate. […] A careful analysis of various chemical that were chemically very closely related to 3-phosphoglycerate was carried out.
Seventeen compounds were tested at 3 mM concentration for their ability to antagonise the inhibition of the enzyme by 1 mM phosphate. The first series of compounds tested were phosphonate analogues of 3-phosphoglycerate. […] The second series tested were derivatives bearing structural similarity to 3-phosphoglycerate. Of these, only one compound gave weak alleviation of phosphate inhibition.

The target of data set [6] is T2, wheat leaf ADP-glucose pyrophosphorylase. To be noted: read-out: concentration required to achieve half-maximal inhibition of enzyme activity.

Molecules are shown by their SMILES. Where two headings read alike, the source gives them in different places.

The text below walks through data of patent US5792920A, “Plants with altered ability to synthesize starch and process for obtaining them” (Imperial Chemical Industries PLC, priority 1988, dated 1998).

On to `O=C(O)C(O)COP(=O)(O)O` (centres unmarked) [3-phosphoglycerate], for which the “fold activation in vitro” value in data set [1] is 1,2 fold. In data set [2], the fold induction at 100 µM was 14.5 and the fold induction at 1000 µM was 10.
Consider `O=C(CO)[C@@H](O)[C@H](O)[C@H](O)COP(=O)(O)O` [Fructose-6-phosphate, fructose-6-phosphate], for which the activation in vitro result in data set [3] was “to a lesser extent”. In addition, in data set [4] (wheat endosperm enzyme), the “alleviation of phosphate inhibition” value is reported as “weakly alleviates phosphate inhibition”.
Take `O=S(=O)(O)O` [Sulphate]: the “antagonism of inhibition of the enzyme by phosphate” value in data set [5] is given as “antagonised phosphate inhibition”.
As to `O=C(COP(=O)(O)O)[C@@H](O)[C@H](O)[C@H](O)COP(=O)(O)O` [fructose-1,6-bisphosphate], the activation in vitro result in data set [3] is given as “to a lesser extent”. The “activation of enzyme by fructose-1,6-bisphosphate” value in data set [4] (wheat endosperm enzyme) is on record as “lack of detectable activation”.
In the case of `O=P(O)(O)O` [orthophosphate], the IC50 in data set [6] was 56 µM; in data set [3] (enzymes from plant leaves, in vitro, read-out: orthophosphate concentration for half-maximal inhibition of enzyme activity) it was less than 100 µM; in data set [4] (read-out: I0.5 value for orthophosphate, in the presence of 1 mM 3-phosphoglycerate) it was 1500 µM; in data set [4] (read-out: concentration required to achieve half-maximal inhibition of enzyme activity, wheat endosperm enzyme), 700 µM.
Regarding `C=C(OP(=O)(O)O)C(=O)O` [phosphoenol pyruvate], the activation in vitro entry in data set [3] is “to a lesser extent”.
`O=C(O)CC(CP(=O)(O)O)C(=O)O` (centres unmarked) [phosphonomethyl-butanedioic acid]: the “antagonism of inhibition of the enzyme by phosphate” value in data set [5] is reported as “weak antagonism of phosphate inhibition”.
